According to article PMC6467724 (Journal of medicinal chemistry, 2018):

Key:
[1] = Microsomal stability assay, rat liver microsomes; type: in vitro ADME, rat (male Sprague-Dawley); settings: for Clhep (hepatic clearance), Rat: predicted from Clint, Qh 70 mL/min/kg; for Clint (estimated intrinsic clearance), Rat: rat pooled liver microsomes 0.5 mg/mL, 1 μM test compound
[2] = Microsomal stability assay, mouse liver microsomes; type: in vitro ADME, mouse (male CD-1); settings: for Clint (estimated intrinsic clearance), Mouse: mouse pooled liver microsomes 0.5 mg/mL, 1 μM test compound; for Clhep (hepatic clearance), Mouse: predicted from Clint, Qh 90 mL/min/kg
[3] = Microsomal stability assay, human liver microsomes; type: in vitro ADME; settings: for Clint (estimated intrinsic clearance), Human: human pooled liver microsomes 0.5 mg/mL, 1 μM test compound; for Clhep (hepatic clearance), Human: predicted from Clint, Qh 21 mL/min/kg
[4] = PK and tissue distribution assay, single oral dose; type: in vivo, BALB/c mice; settings: for concentration at 4 h: BALB/c, mouse, po, 25 mg/kg
[5] = Balb/c mice, single oral dose 25 mg/kg

Clhep (hepatic clearance), Rat [1] [mL/min/kg body weight] | Clint (estimated intrinsic clearance), Rat [1] [mL/min/kg body weight] | Clint (estimated intrinsic clearance), Mouse [2] [mL/min/kg body weight] | Clhep (hepatic clearance), Mouse [2] [mL/min/kg body weight] | Clint (estimated intrinsic clearance), Human [3] [mL/min/kg body weight] | Clhep (hepatic clearance), Human [3] [mL/min/kg body weight] | Plasma life time (time until the compound becomes undetectable) [4, 5] [h] | Plasma Cp, max ([4]; Balb/c mice, single oral dose 25 mg/kg, nd = below 0.1 μM (detection limit)) [µM] | concentration at 4 h ([4]; blood) [µM] | concentration at 4 h ([4]; brain) [µM] | concentration at 4 h ([4]; heart) [µM] | concentration at 4 h ([4]; lung) [µM] | Cp,max, fold lower (vs compound 4) ([4]; single oral 25 mg/kg) [fold] | Oral bioavailability ([4]; single oral 25 mg/kg, no trace in plasma or tissues except intestine) | Structure (SMILES)
20.8 | 29.7 | 105 | 48.4 | 22.3 | 10.8 | 10 | – | – | – | – | – | – | – | O=C(N[C@@H](Cn1ccnc1)c1ccc(-c2ccc(F)cc2)cc1Cl)c1ccc(-c2nnc(-c3ccccn3)o2)cc1 [Compound 2, (R)-N-(1-(3-Chloro-4´-fluoro-[1,1´-biphenyl]-4-yl)-2-(1H-imidazol-1-yl)ethyl)-4-(5-(pyridin-2-yl)-1,3,4-oxadiazol-2-yl)benzamide]
46.9 | 142 | 34.2 | 24.8 | 20.9 | 10.5 | <10 | 28 | – | – | – | – | – | – | O=C(N[C@@H](Cn1ccnc1)c1ccc(-c2ccccc2)cc1Cl)c1ccc(-c2nnc(-c3ccccc3)o2)cc1 [Compound 4, (R)-N-(1-(3-Chloro-[1,1´-biphenyl]-4-yl)-2-(1H-imidazol-1-yl)ethyl)-4-(5-phenyl-1,3,4-oxadiazol-2-yl)benzamide]
45.6 | 131 | 220 | 63.9 | 21.2 | 10.6 | <16 | – | 4 ± 2 | 0.2 | 3 ± 0.5 | 26 ± 4 | 2 | – | [2H]c1c([2H])c([2H])c(-c2ccc([C@H](Cn3ccnc3)NC(=O)c3ccc(-c4nnc(-c5ccccc5)o4)cc3)c(Cl)c2)c([2H])c1[2H] [Compound 5, (R)-N-(1-(3-Chloro-[1,1´-biphenyl]-4-yl-2´,3´,4´,5´,6´-d5)-2-(1H-imidazol-1-yl)ethyl)-4-(5-phenyl-1,3,4-oxadiazol-2-yl)benzamide]
31.7 | 58.1 | 127 | 52.6 | 11.6 | 7.46 | – | – | – | – | – | – | – | not orally bioavailable | CS(=O)(=O)c1ccc(-c2ccc([C@H](Cn3ccnc3)NC(=O)c3ccc(-c4nnc(-c5ccccc5)o4)cc3)c(Cl)c2)cc1 [Compound 6, (R)-N-(1-(3-Chloro-4´-(methylsulfonyl)-[1,1´-biphenyl]-4-yl)-2-(1H-imidazol-1-yl)ethyl)-4-(5-phenyl-1,3,4-oxadiazol-2-yl)benzamide]
33.5 | 64.3 | 87.7 | 44.4 | 16.5 | 9.24 | – | – | – | – | – | – | – | – | O=C(N[C@@H](Cn1ccnc1)c1ccc(Cl)cc1Cl)c1ccc(-c2nnc(-c3ccc(OCC(F)(F)F)cc3F)o2)cc1 [Compound 8, (R)-N-(1-(2,4-Dichlorophenyl)-2-(1H-imidazol-1-yl)ethyl)-4-(5-(2-fluoro-4-(2,2,2-trifluoroethoxy)phenyl)-1,3,4-oxadiazol-2-yl)benzamide]
